Publication doi:10.1101/2025.05.23.655777v1 (biorxiv, 2025)

Target: GABA-AT; GABA aminotransferase 1 (recombinant) (Arabidopsis thaliana, UniProt Q94CE5)
Assay: inhibition kinetics, LDH-coupled or HPLC assay, competitive fit
Format: biochemical

Compound `N[C@@H](CS)C(=O)O` [L-cysteine] has a Ki of 420 µM.
